Assay results: ChEMBL document CHEMBL1201862, “PubChem BioAssay data set” (2004)
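Cultured in 96-well plates, cells were exposed to test compound for 48 hours across five concentrations. GI50: concentration for 50% inhibition of growth.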 Calls of active or inactive are those of the source. No stated cut-off is given here; in the data, active = GI50 up to about 1.1 µM and inactive = higher.

What was measured:
Assay in all cases: inhibition of tumour cell growth, NCI panel, 48 h
UO-31 = system: UO-31
KM12 = system: KM12
HL-60 = system: HL-60
M14 = system: M14
A549 = system: A549
MOLT-4 = system: MOLT-4
RPMI-8226 = system: RPMI-8226
OVCAR-8 = system: OVCAR-8
U-251 = system: U-251
NCI-H460 = system: NCI-H460
SK-OV-3 = system: SK-OV-3
SF-539 = system: SF-539
RXF 393 = system: RXF 393
SF-295 = system: SF-295
CCRF-CEM = system: CCRF-CEM
A498 = system: A498
LOX IMVI = system: LOX IMVI
SN12C = system: SN12C

Measured: GI50

CCOc1ccc(C2=NN(CC)C(=O)C(C3C(=O)N(c4ccccc4)N=C3C)C2)cc1 (stereo unspecified)
inactive: UO-31 > 100 µM | KM12 > 100 µM | HL-60 > 100 µM | M14 > 100 µM | A549 > 100 µM | MOLT-4 > 100 µM | RPMI-8226 > 100 µM | OVCAR-8 > 100 µM | U-251 > 100 µM | NCI-H460 > 100 µM | SK-OV-3 > 100 µM | SF-539 > 100 µM | RXF 393 > 100 µM | SF-295 > 100 µM | CCRF-CEM > 100 µM | A498 > 100 µM | LOX IMVI > 100 µM

COC(=O)C1=C(c2cc(OC)c(OC)c(OC)c2)OC(c2ccc3c(c2)OCO3)C1 (stereo unspecified)
inactive: UO-31 15.5 µM | KM12 13.2 µM | M14 29.4 µM | A549 34.5 µM | MOLT-4 15.8 µM | RPMI-8226 33.4 µM | OVCAR-8 37.9 µM | U-251 19.6 µM | NCI-H460 31.7 µM | SK-OV-3 45.5 µM | SF-539 20.7 µM | RXF 393 49 µM | SN12C 20.3 µM | SF-295 18.5 µM | CCRF-CEM 27.6 µM | A498 8.95 µM | LOX IMVI 6.28 µM

O=C(CCc1n[nH]c(=S)o1)Nc1cc(Cl)ccc1Cl
inactive: UO-31 > 100 µM | KM12 > 100 µM | HL-60 30.5 µM | M14 > 100 µM | A549 50.6 µM | MOLT-4 > 100 µM | RPMI-8226 19.1 µM | OVCAR-8 > 100 µM | U-251 34.4 µM | NCI-H460 51.3 µM | SK-OV-3 > 100 µM | SF-539 > 100 µM | SN12C > 100 µM | SF-295 > 100 µM | CCRF-CEM 33.8 µM | A498 > 100 µM

CC(C)C(/C=C/c1ccc(Br)cc1)=N\NC(N)=O
inactive: UO-31 18.2 µM | KM12 > 100 µM | HL-60 > 100 µM | M14 > 100 µM | A549 > 100 µM | MOLT-4 > 100 µM | RPMI-8226 > 100 µM | OVCAR-8 > 100 µM | U-251 > 100 µM | NCI-H460 > 100 µM | SK-OV-3 > 100 µM | SF-539 > 100 µM | RXF 393 > 100 µM | SN12C > 100 µM | SF-295 > 100 µM | CCRF-CEM > 100 µM | LOX IMVI > 100 µM

CNC(=S)NC1CCCCC1NC(=S)NC (stereo unspecified)
inactive: UO-31 > 100 µM | KM12 > 100 µM | HL-60 > 100 µM | M14 > 100 µM | A549 > 100 µM | MOLT-4 > 100 µM | RPMI-8226 > 100 µM | OVCAR-8 > 100 µM | U-251 > 100 µM | NCI-H460 > 100 µM | SK-OV-3 > 100 µM | SF-539 > 100 µM | SN12C > 100 µM | SF-295 > 100 µM | CCRF-CEM > 100 µM | LOX IMVI > 100 µM

CN(C)CC1CCC/C1=N\O (stereo unspecified)
inactive: UO-31 > 100 µM | M14 > 100 µM | MOLT-4 > 100 µM | RPMI-8226 > 100 µM | OVCAR-8 > 100 µM | U-251 > 100 µM | NCI-H460 > 100 µM | SK-OV-3 > 100 µM | SF-539 > 100 µM | RXF 393 > 100 µM | SN12C > 100 µM | SF-295 > 100 µM | CCRF-CEM > 100 µM | A498 > 100 µM | LOX IMVI > 100 µM

Nc1ncnc2c1ncn2CCOC(c1ccccc1)P(=O)(O)O (stereo unspecified)
inactive: UO-31 > 100 µM | KM12 > 100 µM | HL-60 > 100 µM | A549 > 100 µM | MOLT-4 > 100 µM | OVCAR-8 > 100 µM | U-251 > 100 µM | NCI-H460 > 100 µM | SK-OV-3 > 100 µM | SF-539 > 100 µM | RXF 393 > 100 µM | SN12C > 100 µM | SF-295 > 100 µM | CCRF-CEM > 100 µM | A498 > 100 µM | LOX IMVI > 100 µM

CC12CC3C(CC1SCC(=O)O2)C3(C)C (stereo unspecified)
inactive: UO-31 > 100 µM | KM12 > 100 µM | HL-60 > 100 µM | M14 > 100 µM | A549 > 100 µM | MOLT-4 > 100 µM | RPMI-8226 > 100 µM | OVCAR-8 > 100 µM | U-251 > 100 µM | NCI-H460 > 100 µM | SK-OV-3 > 100 µM | SF-539 > 100 µM | SN12C > 100 µM | SF-295 > 100 µM | CCRF-CEM > 100 µM | A498 16.6 µM

O=C(O)/C(Cl)=C(\Cl)C(=O)NC1C2CC3CC(C2)CC1C3 (stereo unspecified)
inactive: UO-31 > 100 µM | KM12 9.64 µM | HL-60 > 100 µM | M14 > 100 µM | A549 > 100 µM | MOLT-4 > 100 µM | RPMI-8226 > 100 µM | OVCAR-8 > 100 µM | U-251 > 100 µM | SK-OV-3 > 100 µM | SF-539 > 100 µM | SN12C > 100 µM | SF-295 > 100 µM | CCRF-CEM > 100 µM | A498 > 100 µM | LOX IMVI > 100 µM

O=C(N/C(=C\c1cccc([N+](=O)[O-])c1)c1nc2ccccc2[nH]1)c1ccccc1
inactive: UO-31 16.6 µM | KM12 69 µM | M14 66.8 µM | A549 35.2 µM | MOLT-4 32.9 µM | RPMI-8226 40.8 µM | OVCAR-8 30.3 µM | U-251 44 µM | NCI-H460 87.1 µM | SK-OV-3 > 100 µM | SF-539 45.6 µM | SN12C 68.7 µM | CCRF-CEM 34.4 µM | A498 35.8 µM

CC(=O)Nc1ccc(-c2nnc(SCC(=O)Nc3ccc([N+](=O)[O-])cc3)o2)cc1
inactive: UO-31 18.9 µM | KM12 14.5 µM | HL-60 > 100 µM | M14 13.9 µM | A549 17.5 µM | MOLT-4 12.2 µM | RPMI-8226 24.7 µM | OVCAR-8 14.6 µM | U-251 14.7 µM | NCI-H460 15.2 µM | SK-OV-3 17.8 µM | SF-539 24.3 µM | RXF 393 14.7 µM | SN12C 16.3 µM | SF-295 14.1 µM | CCRF-CEM 12.6 µM | LOX IMVI 5.15 µM

CCc1ccc(/C(C)=N/NC(N)=S)cc1
inactive: UO-31 > 100 µM | KM12 > 100 µM | M14 > 100 µM | A549 81.1 µM | MOLT-4 17.2 µM | RPMI-8226 > 100 µM | OVCAR-8 > 100 µM | U-251 > 100 µM | SK-OV-3 > 100 µM | SF-539 > 100 µM | RXF 393 47.3 µM | SF-295 > 100 µM

CC1(C)OB(O)OC1(C)C
inactive: UO-31 > 100 µM | KM12 > 100 µM | HL-60 > 100 µM | M14 > 100 µM | A549 > 100 µM | MOLT-4 > 100 µM | RPMI-8226 > 100 µM | OVCAR-8 > 100 µM | NCI-H460 > 100 µM | SK-OV-3 > 100 µM | SF-539 > 100 µM | RXF 393 > 100 µM | SN12C > 100 µM | SF-295 > 100 µM | CCRF-CEM > 100 µM | A498 > 100 µM | LOX IMVI > 100 µM

Cc1ccc(C2=C(c3ccc(C)cc3)C(c3ccc(C)cc3)=C(c3ccc(C)cc3)C2=O)cc1
inactive: UO-31 > 100 µM | KM12 > 100 µM | M14 > 100 µM | A549 > 100 µM | MOLT-4 > 100 µM | RPMI-8226 > 100 µM | OVCAR-8 > 100 µM | U-251 > 100 µM | NCI-H460 > 100 µM | SK-OV-3 > 100 µM | SF-539 > 100 µM | RXF 393 > 100 µM | SN12C > 100 µM | SF-295 > 100 µM | CCRF-CEM > 100 µM | A498 > 100 µM

COc1c(Br)cc(Br)c(OC)c1-c1ccc[nH]1
inactive: UO-31 43.3 µM | KM12 > 100 µM | HL-60 31.6 µM | M14 75.7 µM | A549 > 100 µM | MOLT-4 46.8 µM | RPMI-8226 80.4 µM | OVCAR-8 > 100 µM | U-251 > 100 µM | NCI-H460 > 100 µM | SK-OV-3 > 100 µM | SF-539 > 100 µM | SF-295 > 100 µM | CCRF-CEM 78.9 µM | A498 > 100 µM | LOX IMVI > 100 µM

COC(=O)c1nc(-c2ccc(Cl)c(Cl)c2)nc2ccc(Cl)cc12
inactive: UO-31 33.6 µM | KM12 > 100 µM | HL-60 > 100 µM | A549 97.7 µM | MOLT-4 > 10 µM | RPMI-8226 > 100 µM | OVCAR-8 47.4 µM | U-251 43.7 µM | NCI-H460 > 100 µM | SK-OV-3 20.6 µM | SF-539 17.5 µM | RXF 393 22.8 µM | SN12C > 100 µM | SF-295 37.7 µM | CCRF-CEM > 10 µM | A498 73.1 µM

CCc1cccc(C)c1N1C(=O)C(=O)C(c2nc3ccccc3o2)/C(=N/NC(=S)NN)C1=O (stereo unspecified)
inactive: UO-31 > 100 µM | KM12 > 100 µM | HL-60 > 100 µM | M14 > 100 µM | A549 > 100 µM | RPMI-8226 > 100 µM | OVCAR-8 > 100 µM | U-251 > 100 µM | NCI-H460 > 100 µM | SK-OV-3 > 100 µM | SF-539 > 100 µM | RXF 393 > 100 µM | SN12C > 100 µM | SF-295 > 100 µM | CCRF-CEM > 100 µM | A498 > 100 µM | LOX IMVI > 100 µM
